The values that follow come from patent publication US20100226853A1 (priority 2007, published 2010).

For one data set, the target named is T1, ACK (Homo sapiens, UniProt Q07912).
T1 construct: purchased Carna Biosciences (QuickScout service)
Kind of data set: QuickScout ELISA kinase panel. It is filed as biochemical. The source says:
(§1) . […] An ELISA-based assay was used in which the phosphorylation of an oligopeptide substrate was detected by an HRP-conjugated anti-p-Tyr (PY20) probe. […]. The data appears in Table 2 in Example 3.
A general note: In an ELISA, binding on a coated surface is turned into a signal by an enzyme label.

Another data set concerns the target T2, EphB4 (Homo sapiens, UniProt P54760).
T2 construct: purchased Carna Biosciences (QuickScout service)
Kind of data set: QuickScout ELISA kinase panel. It is filed as biochemical.
Excerpt: as §1

Another data set concerns the target T3, MET (Homo sapiens, UniProt P08581).
T3 construct: purchased Carna Biosciences (QuickScout service)
Kind of data set: QuickScout ELISA kinase panel. The format is biochemical.
Excerpt: as §1

The target of another data set is T4, JAK3 (Homo sapiens, UniProt P52333).
T4 construct: purchased Carna Biosciences (QuickScout service)
Kind of data set: QuickScout ELISA kinase panel. The format is biochemical.
Excerpt: as §1

In another data set the target is T5, TYRO3 (Homo sapiens, UniProt Q06418).
T5 construct: purchased Carna Biosciences (QuickScout service)
Kind of data set: QuickScout ELISA kinase panel. It is filed as biochemical.
Excerpt: as §1

In another data set the target is T6, CSK (Homo sapiens, UniProt P41240).
T6 construct: purchased Carna Biosciences (QuickScout service)
T6 sequence (P41240 whole entry): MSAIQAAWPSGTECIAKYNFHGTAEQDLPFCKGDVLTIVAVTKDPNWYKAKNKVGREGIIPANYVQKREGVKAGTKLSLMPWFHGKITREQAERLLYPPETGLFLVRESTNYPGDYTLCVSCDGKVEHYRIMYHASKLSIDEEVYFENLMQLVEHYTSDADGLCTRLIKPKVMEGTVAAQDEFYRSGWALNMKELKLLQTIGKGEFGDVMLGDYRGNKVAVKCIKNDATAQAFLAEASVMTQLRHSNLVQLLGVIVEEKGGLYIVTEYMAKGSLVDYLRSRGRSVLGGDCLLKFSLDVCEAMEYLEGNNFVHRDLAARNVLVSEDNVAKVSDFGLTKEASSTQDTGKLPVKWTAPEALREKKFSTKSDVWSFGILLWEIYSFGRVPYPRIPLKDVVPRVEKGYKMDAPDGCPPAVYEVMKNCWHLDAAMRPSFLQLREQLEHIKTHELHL
Kind of data set: QuickScout ELISA kinase panel. The format is biochemical.
Excerpt: as §1

The next data set addresses T7, TEC (Homo sapiens, UniProt P42680).
T7 construct: purchased Carna Biosciences (Kobe, Japan), QuickScout service
T7 sequence (P42680 1-631): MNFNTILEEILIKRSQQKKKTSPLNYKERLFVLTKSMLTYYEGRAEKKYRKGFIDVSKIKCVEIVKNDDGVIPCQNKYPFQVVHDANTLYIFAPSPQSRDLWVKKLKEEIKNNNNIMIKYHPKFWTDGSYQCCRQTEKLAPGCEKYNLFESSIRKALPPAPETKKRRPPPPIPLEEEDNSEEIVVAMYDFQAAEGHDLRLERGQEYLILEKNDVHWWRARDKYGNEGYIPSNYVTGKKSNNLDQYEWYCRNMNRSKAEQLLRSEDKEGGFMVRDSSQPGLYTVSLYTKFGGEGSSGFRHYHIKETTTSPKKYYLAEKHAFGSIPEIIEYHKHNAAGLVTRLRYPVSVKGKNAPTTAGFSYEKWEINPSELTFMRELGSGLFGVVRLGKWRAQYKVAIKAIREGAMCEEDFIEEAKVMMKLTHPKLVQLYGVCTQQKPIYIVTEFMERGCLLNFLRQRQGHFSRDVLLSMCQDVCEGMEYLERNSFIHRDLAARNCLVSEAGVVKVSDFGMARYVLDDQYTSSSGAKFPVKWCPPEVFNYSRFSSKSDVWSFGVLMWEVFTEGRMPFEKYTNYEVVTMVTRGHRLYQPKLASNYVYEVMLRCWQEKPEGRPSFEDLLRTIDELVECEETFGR
Kind of data set: QuickScout ELISA kinase panel. The format is biochemical.
Excerpt: as §1

The next data set addresses T8, FLT3 (Homo sapiens, UniProt P36888).
T8 construct: purchased Carna Biosciences (Kobe, Japan), QuickScout service
Kind of data set: QuickScout ELISA kinase panel. It is filed as biochemical.
Excerpt: as §1

In the next data set the target is T9, PDGFR— (Homo sapiens, UniProt P16234).
T9 construct: purchased Carna Biosciences (Kobe, Japan), QuickScout service
T9 sequence (P16234 550-1089 limits assumed): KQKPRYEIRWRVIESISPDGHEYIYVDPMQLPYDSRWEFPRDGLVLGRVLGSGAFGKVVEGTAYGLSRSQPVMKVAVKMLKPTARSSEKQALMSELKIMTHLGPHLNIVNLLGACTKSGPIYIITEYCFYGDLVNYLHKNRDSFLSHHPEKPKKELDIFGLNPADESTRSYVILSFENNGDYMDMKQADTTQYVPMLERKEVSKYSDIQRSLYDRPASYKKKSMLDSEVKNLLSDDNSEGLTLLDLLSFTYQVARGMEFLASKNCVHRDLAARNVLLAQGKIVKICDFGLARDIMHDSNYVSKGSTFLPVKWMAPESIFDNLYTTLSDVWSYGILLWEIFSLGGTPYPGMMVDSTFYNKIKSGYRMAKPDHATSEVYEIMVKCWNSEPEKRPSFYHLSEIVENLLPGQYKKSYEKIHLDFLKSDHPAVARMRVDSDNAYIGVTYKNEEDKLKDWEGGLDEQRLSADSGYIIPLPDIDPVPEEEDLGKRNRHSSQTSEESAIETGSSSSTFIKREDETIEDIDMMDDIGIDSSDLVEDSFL
The data set can be described thus: QuickScout ELISA kinase panel. The format is biochemical.
Excerpt: as §1

For a further data set, the target named is T10, EphA2 (Homo sapiens, UniProt P29317).
T10 construct: purchased Carna Biosciences (QuickScout service)
T10 sequence (P29317 24-976): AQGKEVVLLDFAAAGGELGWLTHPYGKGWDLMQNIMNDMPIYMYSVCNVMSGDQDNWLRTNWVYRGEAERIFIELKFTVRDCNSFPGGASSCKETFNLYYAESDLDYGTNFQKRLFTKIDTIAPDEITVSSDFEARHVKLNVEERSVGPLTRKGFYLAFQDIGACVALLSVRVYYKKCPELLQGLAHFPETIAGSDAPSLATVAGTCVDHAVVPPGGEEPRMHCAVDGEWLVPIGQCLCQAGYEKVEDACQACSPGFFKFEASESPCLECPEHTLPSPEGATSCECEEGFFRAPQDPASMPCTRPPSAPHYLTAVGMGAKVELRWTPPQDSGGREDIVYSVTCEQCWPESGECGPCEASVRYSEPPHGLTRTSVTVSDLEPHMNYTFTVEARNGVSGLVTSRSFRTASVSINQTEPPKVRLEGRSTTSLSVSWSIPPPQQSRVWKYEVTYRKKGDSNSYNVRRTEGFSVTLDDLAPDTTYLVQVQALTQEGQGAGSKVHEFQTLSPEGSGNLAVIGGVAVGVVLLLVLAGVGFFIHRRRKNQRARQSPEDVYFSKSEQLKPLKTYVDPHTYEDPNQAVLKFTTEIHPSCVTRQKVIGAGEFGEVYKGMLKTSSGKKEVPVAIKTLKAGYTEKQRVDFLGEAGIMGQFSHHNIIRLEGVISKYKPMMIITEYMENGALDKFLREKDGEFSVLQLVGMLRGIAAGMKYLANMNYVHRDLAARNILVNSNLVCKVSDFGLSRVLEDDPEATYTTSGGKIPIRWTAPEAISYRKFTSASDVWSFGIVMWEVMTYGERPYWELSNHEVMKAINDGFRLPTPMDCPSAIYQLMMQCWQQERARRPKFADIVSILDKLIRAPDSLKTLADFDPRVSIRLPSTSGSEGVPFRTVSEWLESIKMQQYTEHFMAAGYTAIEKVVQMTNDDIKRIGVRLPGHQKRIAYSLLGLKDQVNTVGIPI
Kind of data set: QuickScout ELISA kinase panel. The format is biochemical.
Excerpt: as §1

In the next data set the target is SRC (Homo sapiens, UniProt P12931). Kind of data set: biochemical. The source says:
(§2) An ELISA-based assay was used in which the phosphorylation of an oligopeptide substrate was detected by an HRP-conjugated anti-p-Tyr (PY20) probe.

The subject of data set [1] is H1975 and H1975-DR lung cancer xenografts. Kind of data set: microPET competitive inhibition of tracer uptake by unlabeled Dasatinib. The format is in vivo, SCID mouse.
For data set [2] the following is noted: oral dasatinib therapy; cited from earlier work.
The subject of the next data set is M07e cells. Kind of data set: Cellular proliferation, [3H]thymidine uptake, Kit ligand dependent growth. It is filed as cell-based. The conditions noted are these: Homo sapiens, M-07e, read-out: IC50, M07e cells proliferation. As to the method: The immortalized human hematopoietic Philadelphia chromosome-positive cytokine independent R10(−) M07e^p210 cell line (46) was maintained in Iscove's modified Dulbecco's medium (Life Technologies, Inc., Grand Island, N.Y.) containing 10% FCS (Hyclone, Logan, Utah). The parental M07e megakaryoblastic cell line was a kind gift of Brian Druker and was maintained in the presence of 50 ng/mL kit ligand (SCF) as described (46-47) K562 was obtained from the ATCC. K562 was maintained in suspension in 90% RPMI 1640 medium supplemented with 10% FBS, 2 mM L-glutamine, 10 mM HEPES, 1 mM sodium pyruvate, 1.5 g/L sodium bicarbonate, 4.5 g/L […], 10% FBS, 100 IU/mL penicillin and 100 μg/ml streptomycin. Tumor cell cultures were maintained in a humidified atmosphere with 5% CO2 at 37° C. (NuAire).
. Data points for all assays were obtained in triplicate, and background incorporation from cell-free wells was determined and subtracted from all data points. The data was analyzed using a non-linear regression fit to a sigmoidal dose-response curve using Prism 4 (GraphPad Software, Inc).

Data set [3] relates to K562 (CML) tumor xenografts. Kind of data set: microPET imaging of K562 xenograft. It is filed as in vivo, athymic nu/nu mice. The protocol: All animal studies were carried out within the framework of an institutional IACUC approved protocol (No. 86-02-020). Athymic nu/nu mice (National Cancer Institute, Bethesda, Md.) were inoculated subcutaneously onto the right shoulder with 1×10^7 K562 cells mixed with Matrigel (BD Biosciences, San Jose, Calif.). K562 is a chronic myelogenous leukemia cell line cultured with IMDM (Iscove's modified Dulbecco's medium; prepared in-house) containing 4 mM L-glutamine, 1.5 g/L sodium bicarbonate, and 10% fetal bovine serum.
Three weeks following tumor inoculation, PET images of mice were obtained using FOCUS 120 microPET™ scanner (Siemens Preclinical Solutions, Knoxyille, Tenn.) with [^18F]-5. Mice were injected intravenously (via tail vein) with 14±1 MBq (375±25 μCi) of [^18F]-5 and imaged 60 minutes later under 2% (at 1 L/min) isoflurane anesthesia (Forane, Baxter Healthcare, Deerfield, Ill.). Image acquisition time was 15 min (t=60 to 75 min) using a 250-750 keV energy window and a 6 nsec timing window. List-mode data were sorted into sinograms by Fourier re-binning and reconstructed by filter back-projection without attenuation correction. Count data in the reconstructed images were converted to activity concentration (i.e. % of the injected dose per gram (% ID/gm)) using a system calibration factor determined using a ^18F-filled mouse-sized phantom. Visualization and analyses of microPET images were carried out using AsiPRO™ software (Siemens Preclinical Solutions, Knoxyille, Tenn.).
In vivo results have been obtained in athymic mice bearing subcutaneous K562 (CML) tumor xenografts in the right shoulder. [^18F]-5 (14±1 MBq, 375±25 μCi) was injected through the tail vein and the subjects were imaged in a microPET scanner. […] Tracer activity was evident within the tumor xenograft (white arrow) and was determined to be 1.1% of the injected dose by ROI (region of interest) analysis. […] The transaxial image was taken at the level of the known palpable tumor as shown in the coronal section (broken line). The intensity of the radiotracer activity is color-graded as depicted by the colored scale.

Data set [4] is described as follows: In vivo metabolism in mice (blood/plasma radio-HPLC). The conditions noted are these: for Peak 3 [18F]-5 (16.9 min) % Radioactivity, parent: plasma. The protocol: Mice were injected i.v. with [^18F]-5 in the tail vein and sacrificed using carbon dioxide at 30, 60 and 120 min post injection. Each group contained three mice. Immediately after sacrifice, about 0.5 ml of blood was collected by cardiac puncture and deposited in a 1.5 ml Eppendorf tube. Disodium EDTA (2.5 mg) was used as anticoagulant. The samples were then maintained at 4° C. for subsequent procedures. The total radioactivity in each total blood sample was counted. The samples were then centrifuged at 4° C. at 2200×g. Radioactivity of the serum and pellet measured and about 50% of the total radioactivity was retained in the pellet. The serum was transferred to a 1.5 ml Eppendorf tube containing about […] of 60% acetonitrile in water and centrifuged again to precipitate any residual proteins. The supernatant was analyzed using HPLC and examined for metabolites. HPLC was carried out on a C-18 Shimadzu 4.6×250 mm HPLC column and eluted under gradient conditions 80% A (pH 5.5 50 mM NaOAc):20% B (CH3CN) to 20% A:80% B at 1 ml/min. Radioactivity was detected using Packard Radiomatic FLO-One/beta detector equipped with a PET flow cell containing BGO (bismuthgermanate) windows.

The target of a further data set is ABL (Homo sapiens, UniProt P00519). The data set can be described thus: QuickScout ELISA kinase panel. The format is biochemical. Particulars: Table 3. Also on record: purchased Carna Biosciences (QuickScout service).
Excerpt: as §2

The next data set concerns the target T11, KIT (Homo sapiens, UniProt P10721).
T11 construct: purchased Carna Biosciences (Kobe, Japan), QuickScout service
The data set can be described thus: QuickScout ELISA kinase panel. The format is biochemical. Particulars: Table 3.
Excerpt: as §2

A further data set concerns the target T12, EGFR (Homo sapiens, UniProt P00533).
T12 construct: purchased Carna Biosciences (QuickScout service)
The data set can be described thus: QuickScout ELISA kinase panel. It is filed as biochemical. Particulars: Table 3.
Excerpt: as §2

Another data set has as its target T13, FGFR1 (Homo sapiens, UniProt P11362).
T13 construct: purchased Carna Biosciences (QuickScout service)
The data set can be described thus: QuickScout ELISA kinase panel. It is filed as biochemical. The conditions noted are these: Table 3.
Excerpt: as §2

T1 sequence (Q07912 whole entry): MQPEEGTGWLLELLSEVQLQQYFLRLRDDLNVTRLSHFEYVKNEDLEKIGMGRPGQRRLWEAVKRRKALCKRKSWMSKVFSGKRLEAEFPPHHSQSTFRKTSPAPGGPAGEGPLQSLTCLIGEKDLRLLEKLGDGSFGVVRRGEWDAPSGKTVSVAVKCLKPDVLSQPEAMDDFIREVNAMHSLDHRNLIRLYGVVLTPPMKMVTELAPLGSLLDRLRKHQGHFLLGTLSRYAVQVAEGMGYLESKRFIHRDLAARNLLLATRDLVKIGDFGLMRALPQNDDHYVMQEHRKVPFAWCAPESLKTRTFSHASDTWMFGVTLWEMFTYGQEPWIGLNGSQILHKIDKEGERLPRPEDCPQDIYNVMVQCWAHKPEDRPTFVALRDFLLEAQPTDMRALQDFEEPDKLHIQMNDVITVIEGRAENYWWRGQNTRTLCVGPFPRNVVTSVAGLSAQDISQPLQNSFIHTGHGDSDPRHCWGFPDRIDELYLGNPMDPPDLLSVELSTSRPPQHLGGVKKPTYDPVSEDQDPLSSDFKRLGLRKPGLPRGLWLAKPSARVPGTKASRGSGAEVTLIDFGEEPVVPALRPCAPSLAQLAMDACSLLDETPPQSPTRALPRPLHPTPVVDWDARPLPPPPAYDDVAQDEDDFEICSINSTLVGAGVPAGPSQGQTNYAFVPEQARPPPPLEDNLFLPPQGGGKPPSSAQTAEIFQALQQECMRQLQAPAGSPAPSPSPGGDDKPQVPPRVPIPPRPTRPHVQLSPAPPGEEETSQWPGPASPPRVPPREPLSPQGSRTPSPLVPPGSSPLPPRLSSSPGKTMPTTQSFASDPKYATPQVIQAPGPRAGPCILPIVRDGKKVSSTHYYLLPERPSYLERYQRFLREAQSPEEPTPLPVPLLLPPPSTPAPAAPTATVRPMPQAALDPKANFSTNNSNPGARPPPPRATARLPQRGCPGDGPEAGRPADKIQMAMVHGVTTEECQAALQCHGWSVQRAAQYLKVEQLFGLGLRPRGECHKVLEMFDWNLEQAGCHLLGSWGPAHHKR
Sequence of SRC (P12931 whole entry): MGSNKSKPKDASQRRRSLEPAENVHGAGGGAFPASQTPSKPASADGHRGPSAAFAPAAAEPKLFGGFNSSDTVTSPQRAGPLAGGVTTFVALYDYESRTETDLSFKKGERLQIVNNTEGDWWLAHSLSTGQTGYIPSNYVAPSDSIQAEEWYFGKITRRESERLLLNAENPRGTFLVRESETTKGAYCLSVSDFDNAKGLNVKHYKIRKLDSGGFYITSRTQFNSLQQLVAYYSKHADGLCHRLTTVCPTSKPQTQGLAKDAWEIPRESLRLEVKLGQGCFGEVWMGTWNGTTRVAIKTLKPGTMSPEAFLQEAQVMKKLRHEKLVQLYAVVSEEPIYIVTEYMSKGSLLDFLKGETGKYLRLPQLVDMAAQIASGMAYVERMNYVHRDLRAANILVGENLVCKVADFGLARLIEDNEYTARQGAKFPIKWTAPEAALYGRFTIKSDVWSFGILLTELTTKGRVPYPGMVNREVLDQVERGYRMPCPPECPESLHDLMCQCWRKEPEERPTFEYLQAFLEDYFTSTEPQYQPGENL
T2 sequence (P54760 16-987): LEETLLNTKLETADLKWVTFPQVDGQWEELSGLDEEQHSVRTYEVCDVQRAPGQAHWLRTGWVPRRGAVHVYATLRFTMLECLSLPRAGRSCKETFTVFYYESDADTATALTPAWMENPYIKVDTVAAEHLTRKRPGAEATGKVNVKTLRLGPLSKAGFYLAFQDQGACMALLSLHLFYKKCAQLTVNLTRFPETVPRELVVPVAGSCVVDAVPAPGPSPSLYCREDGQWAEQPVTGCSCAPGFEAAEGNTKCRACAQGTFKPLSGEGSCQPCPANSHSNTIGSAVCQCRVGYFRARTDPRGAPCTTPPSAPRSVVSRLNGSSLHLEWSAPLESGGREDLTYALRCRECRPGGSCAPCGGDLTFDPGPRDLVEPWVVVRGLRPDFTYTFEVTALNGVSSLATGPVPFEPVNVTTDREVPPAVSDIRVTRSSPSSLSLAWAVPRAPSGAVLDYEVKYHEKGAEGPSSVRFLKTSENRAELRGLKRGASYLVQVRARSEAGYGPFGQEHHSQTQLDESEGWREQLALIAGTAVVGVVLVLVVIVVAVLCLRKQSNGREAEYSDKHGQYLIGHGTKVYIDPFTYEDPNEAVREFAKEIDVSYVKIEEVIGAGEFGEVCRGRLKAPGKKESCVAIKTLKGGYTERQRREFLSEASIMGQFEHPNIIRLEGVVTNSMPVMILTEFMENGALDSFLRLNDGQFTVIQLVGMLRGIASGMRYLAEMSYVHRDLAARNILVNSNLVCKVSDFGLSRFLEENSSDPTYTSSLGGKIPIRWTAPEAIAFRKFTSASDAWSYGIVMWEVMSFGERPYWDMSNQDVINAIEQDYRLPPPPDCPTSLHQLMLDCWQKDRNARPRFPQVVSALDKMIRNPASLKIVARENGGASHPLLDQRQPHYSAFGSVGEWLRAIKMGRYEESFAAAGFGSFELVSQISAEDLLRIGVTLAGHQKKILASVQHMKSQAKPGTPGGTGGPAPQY

In general, inhibition refers to the drop in the measured response relative to a control, in per cent. In the case of `CN[C@@H]1C[C@H]2O[C@@](C)([C@@H]1OC)n1c3ccccc3c3c4c(c5c6ccccc6n2c5c31)C(=O)NC4` [Staurosporine, reference compound], at ACK (read-out: % Inhibition of Kinase Activity, ACK), the inhibition at 0.03 µM is 96.4%. The inhibition at 10 µM on EphB4 (read-out: % Inhibition of Kinase Activity, EphB4) came to 94.1%; on EphA2 (read-out: % Inhibition of Kinase Activity, EphA2), 92.6%. For the same molecule, the inhibition at 0.3 µM on MET worked out at 90%; at CSK (read-out: % Inhibition of Kinase Activity, CSK) it was 89.3%; on TEC (read-out: % Inhibition of Kinase Activity, TEC), 92.5%. Moreover, the inhibition at 0.003 µM at JAK3 amounted to 95.3%; at FLT3 it was 96.4%; on PDGFR— (read-out: % Inhibition of Kinase Activity, PDGFR—) it was 88.4%. At 1 µM the inhibition on TYRO3 was 95.3%. Further, at SRC (read-out: % Inhibition of Kinase Activity, SRC, Staurosporine at 3000 nM), the inhibition at 3 µM was 89.8%.

With `Cc1nc(Nc2ncc(C(=O)Nc3c(C)cccc3Cl)s2)cc(N2CCN(CCO)CC2)n1.O` [Dasatinib, N-(2-chloro-6-methylphenyl)-2-[[6-[4-(2-hydroxyethyl)-1-piperazinyl]-2-methyl-4-pyrimidinyl]amino]-5-thiazole carboxamide monohydrate, reference compound], the “effect of unlabeled Dasatinib on [18F]-5 uptake” value in [1] (Dasatinib 30 mg/kg IP) was “competitive inhibition of tracer uptake in the tumors and organs”. Besides, the “patients with severe myelosuppression” value in data set [2] was greater than 50%. The IC50 in the data set on M07e cells amounted to 1.2 ± 0.8 nM.

One may read the EC50 as the concentration giving half of the maximal effect. Lower therefore signals an effect from little substance. Take `Cc1nc(Nc2ncc(C(=O)Nc3c(C)cccc3Cl)s2)cc(N2CCN(CC[18F])CC2)n1` [[^18F]-5]: the “tracer activity within the tumor xenograft by ROI analysis” value in data set [3] (60 minutes after i.v. injection, one representative mouse) is recorded as 1.1 % of the injected dose. In addition, in data set [3] (microPET 60-75 min), the route of clearance result was “cleared via the hepatobiliary route predominantly”. For the same molecule, the uptake in bone entry in data set [3] (microPET 60-75 min) was “no significant uptake”. For the same molecule, the “K562 tumor uptake in mice” value in [3] (mouse, in vivo) was “significant K562 tumor uptake”. Besides, in data set [4] (mouse blood centrifuged at 2200 x g after i.v. injection), the “total blood radioactivity retained in the pellet” value was “about 50%”. Also, the “Peak 3 [18F]-5 (16.9 min) % Radioactivity, parent” value in data set [4] (30 min post injection) is given as 31 ± 11%; in data set [4] (60 min post injection) it was 9 ± 3%; in [4] (120 min post injection, one trial only), 8%. For the same molecule, in data set [4] (two-hour time course, HPLC of plasma), the “metabolism in plasma over time course” value is listed as “metabolized significantly”. Besides, the “tumor uptake of tracer” value in [1] (H1975 right, H1975-DR left shoulder, before Dasatinib) is listed as “tumor uptake is evident bilaterally”. For the same molecule, the EC50 on ACK (Table 3) is 20 nM; on EphB4 (Table 3), 3.1 nM; at CSK (Table 3) it was 5 nM; at TEC (Table 3) it was 1.9 nM; at PDGFR— (Table 3), 16 nM; at EphA2 (Table 3), 1.9 nM. For the same molecule, the EC50 stood at 0.6 nM on ABL; 2.6 nM on SRC; 1.3 nM at KIT; 270 nM on EGFR; 390 nM at FGFR1.
